One data set has as its target T1, SARS-CoV-2 Mpro (Severe acute respiratory syndrome coronavirus 2, UniProt P0DTD1).
T1 construct: SARS-CoV-2 Mpro; purchased WuXi AppTec
Put plainly: In vitro anti-novel coronavirus Mpro protease activity (fluorogenic substrate). The data set is classed as biochemical. To be noted: 25 nM Mpro, 25 μM substrate, 30 min pre-incubation. The procedure:
The compound was dissolved in DMSO, and diluted in a 3-fold gradient with Echo655 according to the concentration requirements to 10 concentration points, and duplicate tests were set at each concentration, and the diluted solution was added to a 384-well plate. Mpro protein and substrate were diluted with test buffer (100 mM NaCl, 20 mM Tris-HCl, 1 mM EDTA), and Mpro protein was added to the 384-well test plate, incubated with the compound for 30 min at room temperature, and then the substrate was added thereto, and the test concentration of Mpro protein was 25 nM, and the test concentration of substrate was 25 μM. After incubating for 60 minutes in a 30° C. constant temperature incubator, the fluorescence signal value of Ex/Em=340 nm/490 nm was detected by microplate reader. At the same time, the background well containing the substrate and compound but not containing Mpro protein was detected as control.
1) The inhibition rate was calculated using the following formula:
Inhibition rate %=[(compound-BGcompound)−(ZPE-BGZPE)]/[(HPE-BGHPE)−(ZPE-BGZPE)]*100%
ZPE: No-inhibition control, containing 25 nM Mpro protein+25 μM substrate, not containing compound
Compound: Test compound well, containing 25 nM Mpro protein+25 μM substrate+compound
BG: Background control well, containing 25 μM substrate+compound, not containing Mpro protein
2) Log (agonist) vs. response—variable slope nonlinear fitting analysis was carried out on the inhibition rate data (inhibition rate %) of the compound by using GraphPad Prism software, and the IC50 value of the compound was obtained.

The nature of data set [1]: Pharmacokinetic test in combination with Ritonavir in mice. The data set is classed as in vivo, C57BL/6J male mice. To be noted: mouse, plasma, po, 10 mg/kg, p.o. 10 mpk. The procedure:
In this study, C57BL/6J male mice were selected as test animals, and the LC/MS/MS method was used to quantitatively measure the plasma concentrations of mice in combination with Ritonavir at different time points, so as to evaluate the pharmacokinetic characteristics of the test drug in mice.
Firstly, 10 mpk of Ritonavir was administered to mice by intragastric administration at −12 h and 0 h, and then the test compound was dissolved in 30% PEG400+70% normal saline solution and administered to mice by intragastric administration (overnight fasting, 6 to 8 weeks old). 25 μL of blood was collected at 0.083, 0.25, 0.5, 1, 2, 4, 8, 12 and 24 hours after administration to animals, placed in a commercial anticoagulant tube pre-added with EDTA-K2, and centrifuged at 4° C., 3200 g for 10 min to obtain plasma. After the plasma samples were treated, the plasma concentration was determined by LC-MS/MS method.

Data set [2] can be described thus: Tissue distribution test in rats (after Ritonavir). The data set is classed as in vivo, SD male rats. To be noted: rat, po, 30 mg/kg, with Ritonavir. The procedure: In this study, SD male rats were selected as test animals, and the drug concentrations of test compounds in plasma and lungs of rats at different time points were quantitatively measured by LC/MS/MS method to evaluate the pharmacokinetic characteristics of test drugs in rats.
Firstly, 10 mpk of Ritonavir was administered to rats by intragastric administration at −12 h and 0 h, and 30 mpk of the test compound was dissolved in 10% Solutol+30% PEG 400+2% Tween 80+H2O 58% solution and administered to rats by intragastric administration (overnight fasting). 40 μL of blood was collected from the saphenous vein of rats at 0.25, 1 and 6 hours after administration, placed in an anticoagulant tube added with EDTA-K2, centrifuged at 4° C., 3200 g for 10 min to obtain plasma, and some animals were killed at 0.25, 1 and 6 hours respectively to collect lung tissue. After the plasma samples were treated, the plasma concentration was determined by LC-MS/MS method.

The nature of data set [3]: Pharmacokinetics test of mice. Conditions: mouse, plasma. The data set is classed as in vivo, C57BL/6J male mice. The procedure: In this study, C57BL/6J male mice were selected as test animals, and LC/MS/MS method was used to quantitatively measure the plasma concentration of the test compound 11 at different time points after oral administration and injection in mice, so as to evaluate the pharmacokinetic characteristics of the test drug in mice.
The test compound dissolved in 30% PEG400+70% normal saline was administered to mice (overnight fasting, 6-8 weeks old) by intragastric administration. 25 μL of blood was collected at 0.083, 0.25, 0.5, 1, 2, 4, 8, 12 and 24 hours after administration, respectively, and placed in commercial anticoagulation tubes pre-added with EDTA-K2, centrifuged at 4° C., 3200 g for 10 min to obtain plasma, and after the plasma sample was treated, the plasma concentration was determined by LC-MS/MS method.

The record followed here is patent US20240158373A1, “RING-MODIFIED PROLINE SHORT PEPTIDE COMPOUND AND USE THEREOF” (FUJIAN AKEYLINK BIOTECHNOLOGY CO., LTD., priority 2021, published 2024).

Read-outs that look alike come from different tables or passages of the source.

Consider `CC(C)(C)[C@H](NC(=O)C(F)(F)F)C(=O)N1C[C@@H]2C3C=CC(C3)[C@@H]2[C@H]1C(=O)N[C@H](C#N)C[C@@H]1CCNC1=O` (single isomer, unassigned) [Compound 28A], for which, on SARS-CoV-2 Mpro, half-maximal inhibition (IC50) required 2.6 nM.

As for `CC(C)(C)[C@H](NC(=O)C(F)(F)F)C(=O)N1C[C@@H]2C3C=CC(C3)[C@@H]2[C@H]1C(=O)N[C@H](C#N)C[C@@H]1CCNC1=O` (single isomer, unassigned) [Compound 28], the IC50 at SARS-CoV-2 Mpro is 31 nM.

Consider `CC(C)(C)[C@H](NC(=O)C(F)(F)F)C(=O)N1C[C@@H]2C3CCC(C3)[C@@H]2[C@H]1C(=O)N[C@H](C#N)C[C@@H]1CCNC1=O` (single isomer, unassigned) [Compound 29-1], for which the IC50 against SARS-CoV-2 Mpro was found to be 264 nM.

`CC(C)(C)[C@H](NC(=O)C(F)(F)F)C(=O)N1C[C@@H]2C3CCC(C3)[C@@H]2[C@H]1C(=O)N[C@H](C#N)C[C@@H]1CCNC1=O` (single isomer, unassigned) [Compound 29-2]: on SARS-CoV-2 Mpro, half-maximal inhibition (IC50) was put at 11 nM.

`N#C[C@H](C[C@@H]1CCNC1=O)NC(=O)[C@@H]1[C@H]2CC[C@H](C2)N1C(=O)[C@@H](NC(=O)C(F)(F)F)C12CC3CC(CC(F)(C3)C1)C2` [Compound 9] returned an IC50 on SARS-CoV-2 Mpro of 25 nM. This IC50 lies about 2.3-fold higher than the previous one.

With `CC(C)(C)[C@H](NC(=O)C(F)(F)F)C(=O)N1[C@H]2C[C@@H]([C@H]1C(=O)N[C@H](C#N)C[C@@H]1CCNC1=O)C1(CC1)C2` [Compound 11], the AUC(0-t) in data set [1] (with Ritonavir 10 mpk) amounted to 28.7 µM·h; in data set [3] (iv, 3 mg/kg, i.v. 3 mpk), 1.45 µM·h; in data set [3] (po, 10 mg/kg, p.o. 10 mpk), 1.52 µM·h. The Tmax in data set [1] (with Ritonavir 10 mpk) is 30 min; in data set [3] (po, 10 mg/kg, p.o. 10 mpk), 15 min. Also, the Cmax in data set [1] (with Ritonavir 10 mpk at −12 h and 0 h) was 10.1 µM; in data set [3] (po, 10 mg/kg, p.o. 10 mpk) it was 1.85 µM. The Kp at 0.25 h in data set [2] (lung, 0.25 h, given as x/1, read-out: Lung/plasma ratio at 0.25 h) was 5.5. Also, the Kp at 1 h in data set [2] (lung, 1 h, given as x/1, read-out: Lung/plasma ratio at 1 h) was 3.2. The Kp at 6 h in data set [2] (lung, 6 h, given as x/1, read-out: Lung/plasma ratio at 6 h) turned out to be 1.6; in data set [2] (lung, given as x/1, read-out: Lung/plasma ratio of AUC(0-6 h)) it was 2.6. The concentration at 0.25 h in data set [2] (30 mpk intragastric, lung, 0.25 h, read-out: Lung concentration at 0.25 h) is 15.8 µM; in data set [2] (30 mpk intragastric, plasma, 0.25 h, read-out: Plasma concentration at 0.25 h), 2.86 µM. The concentration at 1 h was 18.4 µM in data set [2] (30 mpk intragastric, lung, 1 h, read-out: Lung concentration at 1 h) and 5.49 µM in data set [2] (30 mpk intragastric, plasma, 1 h, read-out: Plasma concentration at 1 h). The concentration at 6 h in data set [2] (30 mpk intragastric, lung, 6 h, read-out: Lung concentration at 6 h) stood at 7.85 µM; in data set [2] (30 mpk intragastric, plasma, 6 h, read-out: Plasma concentration at 6 h), 4.88 µM. The AUC at 6 h in data set [2] (30 mpk intragastric, lung, read-out: Lung AUC(0-6 h)) amounted to 76.8 µM·h. This molecule also gave an AUC(0-t) at 6 h in data set [2] (30 mpk intragastric, plasma) of 29.4 µM·h. This molecule had a clearance in data set [3] (iv, 3 mg/kg, i.v. 3 mpk) of 68.5 mL/min/kg. The molecule also gave a half-life in data set [3] (iv, 3 mg/kg, i.v. 3 mpk) of 12 min. The Vd in data set [3] (iv, 3 mg/kg, i.v. 3 mpk, read-out: Vdss) turned out to be 0.9 L/kg.

What is called IC50 is the concentration that inhibits the measured activity by half. Broadly, the AUC(0-t) is exposure summed from dosing to a finite time, without extrapolation to infinity. Broadly, the Tmax is the time from dosing to the highest level. As a reminder, the Cmax is the maximum level reached in the sampled fluid or tissue. As a reminder, the AUC is concentration integrated over time. As a reminder, the clearance is the rate of elimination divided by the concentration. A lower clearance goes with inefficient removal. One may read the half-life as the time needed for the level to fall by half in the phase considered.
